Assay results reported in patent US12234230B2, “Substituted benzyl-triazole compounds for Cbl-b inhibition, and further uses thereof” (Nurix Therapeutics, Inc., priority 2019, dated 2025).
Like-named read-outs stand apart in the source and are kept apart here.

How the values were obtained:
[1] = molecular target: Cbl-b (Homo sapiens (Human), UniProt Q13191); test: Cbl-b displacement assay (Cbl-b inhibition assay), Biological Example 1; format: binding
Description: The ability of candidate compounds to displace a known inhibitor and thereby inhibit Cbl-b activity was measured by monitoring the interaction of Cbl-b with a fluorophore-labeled probe in the presence of the candidate compound.
Following the one hour incubation, the plates were read for TR-FRET signal at 520/620 nm using an Envision plate reader (Perkin Elmer).

[2] = tested on: primary human total T-cells; test: Primary human total T-cell activation (IL-2 secretion, CD25 surface staining), Biological Example 2; details: fold change over baseline; for CD25 staining CD3/CD28 0.3 μM / IL-2 secretion CD3/CD28 0.3 μM: 0.3 μM inhibitor; for CD25 staining CD3/CD28 0.3 μM / IL-2 secretion CD3/CD28 0.3 μM / CD25 staining CD3/CD28 1 μM / IL-2 secretion CD3/CD28 1 μM: anti-CD3 and anti-CD28 co-stimulation; for CD25 staining CD3/CD28 1 μM / IL-2 secretion CD3/CD28 1 μM / CD25 staining CD3 1 μM / IL-2 secretion CD3 1 μM: 1 μM inhibitor; for CD25 staining CD3 1 μM / IL-2 secretion CD3 1 μM / CD25 staining CD3 3 μM / IL-2 secretion CD3 3 μM: anti-CD3 stimulation alone; for CD25 staining CD3 3 μM / IL-2 secretion CD3 3 μM: 3 μM inhibitor
[3] = 0.125 nM Cbl-b final concentration (Low), read-out: Cbl-b activity IC50 (Low)
[4] = read-out: IC50 values in the Cbl-b inhibition assay of Biological Example 1
[5] = 0.5 nM Cbl-b final concentration (High), read-out: Cbl-b activity IC50 (High)

Chain of Cbl-b (Q13191 36-427): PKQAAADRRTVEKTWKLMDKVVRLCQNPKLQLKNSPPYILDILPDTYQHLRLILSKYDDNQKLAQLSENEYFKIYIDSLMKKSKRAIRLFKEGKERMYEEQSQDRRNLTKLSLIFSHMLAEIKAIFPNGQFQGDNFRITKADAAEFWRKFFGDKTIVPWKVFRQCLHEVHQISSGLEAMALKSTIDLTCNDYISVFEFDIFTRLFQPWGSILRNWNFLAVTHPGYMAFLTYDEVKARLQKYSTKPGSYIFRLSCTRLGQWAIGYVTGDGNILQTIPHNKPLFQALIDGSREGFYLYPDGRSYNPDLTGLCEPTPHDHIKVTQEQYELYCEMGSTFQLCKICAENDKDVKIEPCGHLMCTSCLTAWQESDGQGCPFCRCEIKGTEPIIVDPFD

Row | IC50 [1, 3] [nM] | IC50 [1, 4] [nM] | IC50 [1, 5] [nM] | SMILES | CD25 staining CD3/CD28 0.3 μM [2] | IL-2 secretion CD3/CD28 0.3 μM [2] | CD25 staining CD3/CD28 1 μM [2] | IL-2 secretion CD3/CD28 1 μM [2] | CD25 staining CD3 1 μM [2] | IL-2 secretion CD3 1 μM [2] | CD25 staining CD3 3 μM [2] | IL-2 secretion CD3 3 μM [2]
1 | < 5 | ≤ 5 | – | C[C@@H]1CN(Cc2cc3c(c(C(F)(F)F)c2)CN(c2cccc([C@H](c4nncn4C)C4CCC4)c2)C3=O)CCC1(F)F [Compound 1, 2-(3-((R)-cyclobutyl(4-methyl-4H-1,2,4-triazol-3-yl)methyl)phenyl)-6-(((R)-4,4-difluoro-3-methylpiperidin-1-yl)methyl)-4-(trifluoromethyl)isoindolin-1-one] | B (B indicates 1.24-1.39 fold) | B (B indicates 20-35 fold) | B (B indicates 1.24-1.39 fold) | B (B indicates 20-35 fold) | A (A indicates >2.5 fold) | A (A indicates >1.1 fold) | A (A indicates >2.5 fold) | A (A indicates >1.1 fold)
2 | > 100 | > 100 | – | C[C@@H]1CN(Cc2cc3c(c(C(F)(F)F)c2)CN(c2cccc([C@@H](c4nncn4C)C4CCC4)c2)C3=O)CCC1(F)F [Compound 2, 2-(3-((S)-cyclobutyl(4-methyl-4H-1,2,4-triazol-3-yl)methyl)phenyl)-6-(((R)-4,4-difluoro-3-methylpiperidin-1-yl)methyl)-4-(trifluoromethyl)isoindolin-1-one] | – | A (A indicates >35 fold) | – | A (A indicates >35 fold) | A (A indicates >2.5 fold) | A (A indicates >1.1 fold) | A (A indicates >2.5 fold) | B (B indicates 0.70-1.1 fold)
3 | < 5 | ≤ 5 | – | C[C@H]1CCCN(Cc2cc3c(c(C(F)(F)F)c2)CN(c2cccc([C@@H](c4nncn4C)C4CCC4)c2)C3=O)C1 [Compound 4, 2-(3-((S)-cyclobutyl(4-methyl-4H-1,2,4-triazol-3-yl)methyl)phenyl)-6-(((S)-3-methylpiperidin-1-yl)methyl)-4-(trifluoromethyl)isoindolin-1-one] | – | – | – | – | – | – | – | –
4 | 20 to 100 | 20 to 100 | – | C[C@@H]1CN(Cc2cc3c(c(C4CC4)n2)CN(c2cccc([C@@H](c4nncn4C)C4CCC4)c2)C3=O)CCC1(F)F [Compound 5, 2-(3-((S)-cyclobutyl(4-methyl-4H-1,2,4-triazol-3-yl)methyl)phenyl)-4-cyclopropyl-6-(((R)-4,4-difluoro-3-methylpiperidin-1-yl)methyl)-2,3-dihydro-1H-pyrrolo[3,4-c]pyridin-1-one] | B (B indicates 1.24-1.39 fold) | C (C indicates <20 fold) | B (B indicates 1.24-1.39 fold) | C (C indicates <20 fold) | C (C indicates <1.5 fold) | C (C indicates <0.70 fold) | C (C indicates <1.5 fold) | C (C indicates <0.70 fold)
5 | 20 to 100 | 20 to 100 | – | C[C@H]1CCCN(Cc2cc3c(c(C4CC4)n2)CN(c2cccc([C@@H](c4nncn4C)C4CCC4)c2)C3=O)C1 [Compound 6, 2-(3-((S)-cyclobutyl(4-methyl-4H-1,2,4-triazol-3-yl)methyl)phenyl)-4-cyclopropyl-6-(((S)-3-methylpiperidin-1-yl)methyl)-2,3-dihydro-1H-pyrrolo[3,4-c]pyridin-1-one] | – | – | – | – | – | – | – | –
6 | > 100 | > 100 | – | Cn1cnnc1C(c1cccc(N2Cc3c(cccc3C(F)(F)F)C2=O)c1)C1COC1 (stereo not shown) [Compound 7, 2-(3-((4-methyl-4H-1,2,4-triazol-3-yl)(oxetan-3-yl)methyl)phenyl)-4-(trifluoromethyl)isoindolin-1-one] | – | – | – | – | – | – | – | –
7 | – | 5 to 20 | 5 to 20 | Cn1cnnc1[C@@H](c1cccc(N2Cc3c(cccc3C(F)(F)F)C2=O)c1)C1CCC1 [Compound 8, (R)-2-(3-(cyclobutyl(4-methyl-4H-1,2,4-triazol-3-yl)methyl)phenyl)-4-(trifluoromethyl)isoindolin-1-one] | – | – | – | – | – | – | – | –
8 | – | – | > 100 | Cn1cnnc1[C@H](c1cccc(N2Cc3c(cccc3C(F)(F)F)C2=O)c1)C1CCC1 [Compound 9, (S)-2-(3-(cyclobutyl(4-methyl-4H-1,2,4-triazol-3-yl)methyl)phenyl)-4-(trifluoromethyl)isoindolin-1-one] | – | – | – | – | – | – | – | –
9 | > 100 | – | – | Cn1cnnc1C1(c2cccc(N3Cc4c(cccc4C(F)(F)F)C3=O)c2)CCOC1 (stereo not shown) [Compound 10, 2-(3-(3-(4-methyl-4H-1,2,4-triazol-3-yl)tetrahydrofuran-3-yl)phenyl)-4-(trifluoromethyl)isoindolin-1-one] | – | – | – | – | – | – | – | –
10 | – | – | > 100 | Cn1cnnc1C1(c2cccc(N3Cc4c(cccc4C(F)(F)F)C3=O)c2)CCCC1 [Compound 11, 2-(3-(1-(4-methyl-4H-1,2,4-triazol-3-yl)cyclopentyl)phenyl)-4-(trifluoromethyl)isoindolin-1-one] | – | C (C indicates <20 fold) | – | C (C indicates <20 fold) | C (C indicates <1.5 fold) | – | C (C indicates <1.5 fold) | –
11 | – | – | > 100 | Cc1cc(C(=O)Nc2cccc([C@@H](c3nncn3C)C3CCC3)c2)nc(C2CC2)n1 [Compound 12, (S)—N-(3-(cyclobutyl(4-methyl-4H-1,2,4-triazol-3-yl)methyl)phenyl)-2-cyclopropyl-6-methylpyrimidine-4-carboxamide] | – | C (C indicates <20 fold) | – | C (C indicates <20 fold) | C (C indicates <1.5 fold) | – | C (C indicates <1.5 fold) | –
12 | – | – | > 100 | Cc1cc(C(=O)Nc2cccc([C@H](c3nncn3C)C3CCC3)c2)nc(C2CC2)n1 [Compound 13, (R)—N-(3-(cyclobutyl(4-methyl-4H-1,2,4-triazol-3-yl)methyl)phenyl)-2-cyclopropyl-6-methylpyrimidine-4-carboxamide] | – | C (C indicates <20 fold) | – | C (C indicates <20 fold) | C (C indicates <1.5 fold) | – | C (C indicates <1.5 fold) | –
13 | 20 to 100 | 20 to 100 | – | CC(c1cc2c(c(C(F)(F)F)c1)CN(c1cccc([C@@H](c3nncn3C)C3CCC3)c1)C2=O)N1CCC(F)(F)[C@H](C)C1 (stereo partly drawn) [Compound 14, 2-(3-((S)-cyclobutyl(4-methyl-4H-1,2,4-triazol-3-yl)methyl)phenyl)-6-(1-((R)-4,4-difluoro-3-methylpiperidin-1-yl)ethyl)-4-(trifluoromethyl)isoindolin-1-one] | B (B indicates 1.24-1.39 fold) | C (C indicates <20 fold) | – | C (C indicates <20 fold) | C (C indicates <1.5 fold) | C (C indicates <0.70 fold) | C (C indicates <1.5 fold) | C (C indicates <0.70 fold)
14 | 5 to 20 | 5 to 20 | – | C[C@@H]1CN(Cc2cc3c(c(C(F)(F)F)c2)CN(c2cccc([C@@H](c4nncn4C)C4CCC4)c2)C3=O)CCO1 [Compound 15, 2-(3-((S)-cyclobutyl(4-methyl-4H-1,2,4-triazol-3-yl)methyl)phenyl)-6-(((R)-2-methylmorpholino)methyl)-4-(trifluoromethyl)isoindolin-1-one] | B (B indicates 1.24-1.39 fold) | C (C indicates <20 fold) | B (B indicates 1.24-1.39 fold) | C (C indicates <20 fold) | C (C indicates <1.5 fold) | C (C indicates <0.70 fold) | C (C indicates <1.5 fold) | C (C indicates <0.70 fold)
15 | 20 to 100 | 20 to 100 | – | CC(c1cc2c(c(C(F)(F)F)c1)CN(c1cccc([C@@H](c3nncn3C)C3CCC3)c1)C2=O)N1CCC[C@H](C)C1 (stereo partly drawn) [Compound 16, 2-(3-((S)-cyclobutyl(4-methyl-4H-1,2,4-triazol-3-yl)methyl)phenyl)-6-(1-((S)-3-methylpiperidin-1-yl)ethyl)-4-(trifluoromethyl)isoindolin-1-one] | – | C (C indicates <20 fold) | – | B (B indicates 20-35 fold) | A (A indicates >2.5 fold) | B (B indicates 0.70-1.1 fold) | A (A indicates >2.5 fold) | B (B indicates 0.70-1.1 fold)
16 | 5 to 20 | – | – | CC[C@@H]1CN(Cc2cc3c(c(C(F)(F)F)c2)CN(c2cccc([C@]4(c5nncn5C)C[C@@H](C)C4)c2)C3=O)CCO1 [Compound 28, 6-(((R)-2-ethylmorpholino)methyl)-2-(3-((1s,3S)-3-methyl-1-(4-methyl-4H-1,2,4-triazol-3-yl)cyclobutyl)phenyl)-4-(trifluoromethyl)isoindolin-1-one] | – | – | – | – | – | – | – | –
17 | 5 to 20 | – | – | Cn1cnnc1[C@]1(c2cccc(N3Cc4c(cc(CN5CCO[C@H](CC#N)C5)cc4C(F)(F)F)C3=O)c2)C[C@H](C)C1 [Compound 30, 2-((R)-4-((2-(3-((1s,3S)-3-methyl-1-(4-methyl-4H-1,2,4-triazol-3-yl)cyclobutyl)phenyl)-3-oxo-7-(trifluoromethyl)isoindolin-5-yl)methyl)morpholin-2-yl)acetonitrile] | – | – | – | – | – | – | – | –
